Each molecule was assayed on conjugative transfer of plasmid pKM101 (assay: Conjugation assay, pKM101-carrying donor FM433 and plasmid-free recipient WL400). Settings: 50 μM, 2.5% DMSO.
Format: cell-based
Description: Quantitation of conjugative DNA transfer was performed as described previously. For analysis of the inhibition of conjugation by fragments or small molecules, the cells were cultivated on agar and in liquid media in the presence of 50 μM of the small molecules in the presence of 2.5% DMSO.
With `O=C(O)c1ccco1` [1E6, 2-furoic acid] the “Effect on conjugative transfer of pKM101” value was “no effect on conjugation”. For 2-chloroisonicotinic acid [4H10], the “Effect on conjugative transfer of pKM101” value was “no effect on conjugation”. `O=C(O)c1ccnc(-c2ccco2)c1` [compound 239852, 2-(2-furyl)isonicotinic acid] was tested, and the “Effect on conjugative transfer of pKM101” value was “significantly reduce conjugative DNA transfer”. In the case of `O=C(O)c1cc(-n2cccc2)ccn1` [compound 105055, 4-(1H-pyrrol-1-yl)pyridine-2-carboxylic acid], the “Effect on conjugative transfer of pKM101” value is reported as “significantly reduce conjugative DNA transfer”.

The molecules below were run against T1, purified periplasmic domain of TraE (plasmid pKM101) (Escherichia coli, UniProt Q17U16) (assay: Binding to TraE by fluorescence quenching (intrinsic UV fluorescence)). Settings: 20 °C, 20 mM HEPES, 50 mM NaCl, pH 7.4; single site saturation fit.
T1 sequence (Q17U16 entry or part of it): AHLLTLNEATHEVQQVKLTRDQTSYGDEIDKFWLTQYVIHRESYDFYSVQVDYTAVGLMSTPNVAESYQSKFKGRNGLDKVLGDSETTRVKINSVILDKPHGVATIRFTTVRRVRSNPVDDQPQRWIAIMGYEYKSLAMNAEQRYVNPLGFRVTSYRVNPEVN
Description: Protein overexpression and purification was performed as described previously. The TraE buffer was changed to 20 mM HEPES, 50 mM NaCl, pH 7.4. TraE protein concentrations were determined using the molar extinction coefficient at 280 nm of 25 900 M^−1 cm^−1.
Changes of the intrinsic UV fluorescence emission of TraE upon binding of fragments and small molecules were recorded at 20 °C with a Cary Eclipse Fluorometer (Varian) (λex 295 nm, λem 340 nm, 5 nm excitation and emission slit widths) in 20 mM HEPES, 50 mM NaCl, pH 7.4. The spectra were corrected for dilution effects and KD values were calculated from the ligand binding fluorescence data fitted to a single site saturation curve with constant background using the Grafit 6.0 software package.
With `O=C(O)c1ccco1` [1E6, 2-furoic acid] the Kd was 23 ± 1.9 µM. Molecule 2-chloroisonicotinic acid [4H10] has a Kd of 32 ± 1.8 µM. With `O=C(O)c1ccnc(-c2ccco2)c1` [compound 239852, 2-(2-furyl)isonicotinic acid] the Kd was 19.6 ± 1.2 µM. `O=C(O)c1cc(-n2cccc2)ccn1` [compound 105055, 4-(1H-pyrrol-1-yl)pyridine-2-carboxylic acid] gave a Kd of 9.3 ± 0.4 µM.

What follows are molecules tested against T1, purified periplasmic domain of TraE (plasmid pKM101) (assay: Differential scanning fluorimetry (DSF) thermal shift of TraE). Settings: 5 mM fragment or small molecule, 5 μM protein; hit when ΔTm higher than 1 °C.
Format: binding
Description: A library of 505 fragments was used in this study of which 186 were previously described[14] and the others are listed in Supplementary Table 3. DSF experiments were performed as described previously. DSF was conducted using 5 μM of protein, 10X concentration of SYPRO Orange (from 5000X stock solution, ThermoFisher) in 20 mM HEPES, 50 mM NaCl, pH 7.4 and 5% final concentration of DMSO. For fragment-based screening and molecule optimization, fragments or small molecules were added to final concentrations of 5 mM. SYPRO Orange fluorescence was monitored over 20–95 °C with a LightCycler® 480 instrument (Roche, USA). The LightCycler® 480 Software (Roche) was used to calculate the first derivate of the resulting melting curve, with the steepest point of the slope being the Tm. Fragments were considered to be hits when ΔTm was higher than 1 °C, which is two times higher than the standard deviation of the DMSO control.
With `O=C(O)c1ccnc(-c2ccco2)c1` [compound 239852, 2-(2-furyl)isonicotinic acid] the “Effect on thermal melting point of TraE (DSF)” value was “stabilized the protein”. With `O=C(O)c1cc(-n2cccc2)ccn1` [compound 105055, 4-(1H-pyrrol-1-yl)pyridine-2-carboxylic acid] the “Effect on thermal melting point of TraE (DSF)” value was “stabilized the protein”.

What follows are molecules tested on purified periplasmic domain of TraE (assay: In vitro DSS cross-linking assay of TraE dimerization). Settings: 0–1.6 mM molecule, normalized to control without small molecules.
Format: biochemical
Description: Chemical crosslinking with disuccinimidyl suberate (DSS, Pierce) was performed as described previously[13] and the formation of crosslinking products was quantified by SDS-PAGE and using the ImageLab Software 4.0 (Bio-Rad).
With `O=C(O)c1ccnc(-c2ccco2)c1` [compound 239852, 2-(2-furyl)isonicotinic acid] the “Effect on formation of DSS-dependent cross-linking products of TraE (dimerization)” value was “significantly inhibit cross-linking”. `O=C(O)c1cc(-n2cccc2)ccn1` [compound 105055, 4-(1H-pyrrol-1-yl)pyridine-2-carboxylic acid] was tested, and the “Effect on formation of DSS-dependent cross-linking products of TraE (dimerization)” value was “significantly inhibit cross-linking”.
